In publication PMC12638379, “An innovative approach to development of new pyrazolylquinolin-2-one hybrids as dual EGFR and BRAF^V600E inhibitors” (Molecular Diversity, 2025):
Like-named read-outs stand apart in the source and are kept apart here.

Test system: NCI 60 cancer cell lines
Test: NCI anticancer screening over a panel of 60 cancer cells, single concentration 10 µM
Format: cell-based, human
Conditions: Homo sapiens, read-out: % Growth Inhibition (GI %)
Summary of the method: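 Run under the NCI Compound Evaluation Branch protocol, each compound was tested once at 10 µM. The panel comprised 60 cancer cell lines of diverse tissue origin, including leukemia, lung, colon, CNS, renal, ovarian, breast and prostate.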

## C/C(=N\Nc1ccc(S(N)(=O)=O)cc1)c1cnn(-c2cc(=O)[nH]c3ccccc23)c1C [Compound 4a, (E)-4-(2-(1-(5-methyl-1-(2-oxo-1,2-dihydroquinolin-4-yl)-1H-pyrazol-4-yl)ethylidene) hydrazineyl)benzenesulfonamide]
786-0, Renal cancer 786-0, 10 μM
  inhibition at 10 µM: 11.6%
A549, Non-small cell lung cancer A549/ATCC, 10 μM
  inhibition at 10 µM: < 5%
ACHN, Renal cancer ACHN, 10 μM
  inhibition at 10 µM: < 5%
BT-549, Breast cancer BT-549, 10 μM
  inhibition at 10 µM: 34.3%
CAKI-1, Renal cancer CAKI-1, 10 μM
  inhibition at 10 µM: 5.51%
CCRF-CEM, Leukemia CCRF-CEM, 10 μM
  inhibition at 10 µM: 7.82%
COLO 205, Colon cancer COLO 205, 10 μM
  inhibition at 10 µM: < 5%
DU-145, Prostate cancer DU-145, 10 μM
  inhibition at 10 µM: < 5%
HCC 2998, Colon cancer HCC-2998, 10 μM
  inhibition at 10 µM: < 5%
HCT-15, Colon cancer HCT-15, 10 μM
  inhibition at 10 µM: < 5%
HCT-116, Colon cancer HCT-116, 10 μM
  inhibition at 10 µM: < 5%
HL-60, Leukemia HL-60(TB), 10 μM
  inhibition at 10 µM: < 5%
HOP-62, Non-small cell lung cancer HOP-62, 10 μM
  inhibition at 10 µM: 7.49%
HOP-92, Non-small cell lung cancer HOP-92, 10 μM
  inhibition at 10 µM: < 5%
HT-29, Colon cancer HT29, 10 μM
  inhibition at 10 µM: < 5%
Hs-578T, Breast cancer HS 578T, 10 μM
  inhibition at 10 µM: 19.4%
IGROV-1, Ovarian cancer IGROV1, 10 μM
  inhibition at 10 µM: < 5%
K562, Leukemia K-562, 10 μM
  inhibition at 10 µM: < 5%
KM12, Colon cancer KM12, 10 μM
  inhibition at 10 µM: < 5%
LOX IMVI, Melanoma LOX IMVI, 10 μM
  inhibition at 10 µM: 5.22%
Leukemia SR, 10 μM
  inhibition at 10 µM: 12.7%
MCF7, Breast cancer MCF7, 10 μM
  inhibition at 10 µM: 13.9%
MDA-MB-231, Breast cancer MDA-MB-231/ATCC, 10 μM
  inhibition at 10 µM: 17.7%
MDA-MB-435, Melanoma MDA-MB-435, 10 μM
  inhibition at 10 µM: < 5%
MDA-MB-468, Breast cancer MDA-MB-468, 10 μM
  inhibition at 10 µM: 24.8%
MOLT-4, Leukemia MOLT-4, 10 μM
  inhibition at 10 µM: < 5%
Melanoma MALM-3M, 10 μM
  inhibition at 10 µM: 30.1%
NCI-H23, Non-small cell lung cancer NCI-H23, 10 μM
  inhibition at 10 µM: < 5%
NCI-H226, Non-small cell lung cancer NCI-H226, 10 μM
  inhibition at 10 µM: 14.7%
NCI-H322M, Non-small cell lung cancer NCI-H322M, 10 μM
  inhibition at 10 µM: 6.78%
NCI-H460, Non-small cell lung cancer NCI-H460, 10 μM
  inhibition at 10 µM: < 5%
NCI-H522, Non-small cell lung cancer NCI-H522, 10 μM
  inhibition at 10 µM: 18.9%
NCI/ADR-RES, Ovarian cancer NCI/ADR-RES, 10 μM
  inhibition at 10 µM: < 5%
OVCAR-4, Ovarian cancer OVCAR-4, 10 μM
  inhibition at 10 µM: 11.4%
OVCAR-5, Ovarian cancer OVCAR-5, 10 μM
  inhibition at 10 µM: < 5%
OVCAR-8, Ovarian cancer OVCAR-8, 10 μM
  inhibition at 10 µM: < 5%
Prostate cancer PC-3, 10 μM
  inhibition at 10 µM: 8.46%
RPMI-8226, Leukemia RPMI-8226, 10 μM
  inhibition at 10 µM: 11.2%
RXF 393, Renal cancer RXF 393, 10 μM
  inhibition at 10 µM: < 5%
SF-268, CNS Cancer SF-268, 10 μM
  inhibition at 10 µM: 14%
SF-295, CNS Cancer SF-295, 10 μM
  inhibition at 10 µM: 5.93%
SF-539, CNS Cancer SF-539, 10 μM
  inhibition at 10 µM: 8.96%
SK-MEL-2, Melanoma SK-MEL-2, 10 μM
  inhibition at 10 µM: 12%
SK-MEL-5, Melanoma SK-MEL-5, 10 μM
  inhibition at 10 µM: 8.23%
SK-MEL-28, Melanoma SK-MEL-28, 10 μM
  inhibition at 10 µM: 6.43%
SK-OV-3, Ovarian cancer SK-OV-3, 10 μM
  inhibition at 10 µM: < 5%
SN12C, Renal cancer SN12C, 10 μM
  inhibition at 10 µM: < 5%
SNB-19, CNS Cancer SNB-19, 10 μM
  inhibition at 10 µM: 9.13%
SNB-75, CNS Cancer SNB-75, 10 μM
  inhibition at 10 µM: 10.1%
SW-620, Colon cancer SW-620, 10 μM
  inhibition at 10 µM: < 5%
T47D, Breast cancer T-47D, 10 μM
  inhibition at 10 µM: 24.7%
TK-10, Renal cancer TK-10, 10 μM
  inhibition at 10 µM: < 5%
U-251, CNS Cancer U251, 10 μM
  inhibition at 10 µM: 7.57%
UACC-62, Melanoma UACC-62, 10 μM
  inhibition at 10 µM: 8.54%
UACC-257, Melanoma UACC-257, 10 μM
  inhibition at 10 µM: < 5%
UO-31, Renal cancer UO-31, 10 μM
  inhibition at 10 µM: 22.6%
